Source: ChEMBL document CHEMBL1143399, “A small-molecule nitroimidazopyran drug candidate for the treatment of tuberculosis” (Nature, 2000)
The source made the active and inactive calls. The calls are words filed in the database; no cut-off is given here.

Key:
Type in all cases: functional, organism-based
Details in all cases: variant bovis BCG
[1] = tested on: Mycobacterium tuberculosis; assay: Inhibition of nucleic acid synthesis in Mycobacterium bovis BCG
[2] = tested on: Mycobacterium tuberculosis; assay: Inhibition of protein synthesis in log phase Mycobacterium bovis BCG assessed as [35S] incorporation after 3 hrs
[3] = tested on: Mycobacterium tuberculosis; assay: Inhibition of lipid synthesis in log phase Mycobacterium bovis BCG assessed as [14C] acetate incorporation after 3 hrs by chromatography

O=[N+]([O-])c1cn2c(n1)OC[C@@H](OCc1ccc(OC(F)(F)F)cc1)C2 [PRETOMANID]
Activity [1]: inactive
Activity [2]: Active
Activity [3]: inactive
